In paper PMC6941823, “A dispensable paralog of succinate dehydrogenase subunit C mediates standing resistance towards a subclass of SDHI fungicides in Zymoseptoria tritici” (PLoS Pathogens, 2019):
Where two headings read alike, the source gives them in different places.

How the values were obtained:
[1] = test system: Zymoseptoria tritici isolates; test: Growth tests on solid agar at discriminatory fungicide concentrations; assay type: cell-based; conditions: AE agar, fluopyram 5 mg.L^-1, 18 DPI (procedure of Fig 6)
Excerpt: Fig 6 Resistance to SHA-SDHIs in Z. tritici EU populations. […] Sensitivity data are sorted by genotype according to the presence of the ZtSDHC3 gene. ** p value of 0.0029 in Welch’s corrected unpaired t-test. (B) Solid agar growth of a collection of 93 Z. tritici isolates sampled in 2009 (same set as above). Individual strains from this collection are boxed and numbered 1 to 93. Boxes A and B correspond to reference resistant strains 06STD024 and 07STGB009 respectively. Box C corresponds to IPO323 reference sensitive isolate. The yellow framed boxes correspond to strains carrying the ZtSDHC3 gene. Yellow arrow designates strain 09STIR20.1 (number 78) carrying a non-functional alt-SDHC (frameshift, S6 Table).
A large scale spotting assay of 96 isolates (Fig 6) was performed using the V&P 96 floating pin tool VP408FP6 (V&P Scientific), equipped with flat tip FP6 pins of 1.58 mm diameter (resulting in approx. 0.4 μl transfer volume). Source cultures for cell spotting were grown in 100 μl YPD liquid medium in a 96 well flat bottom plate (Corning, 3370) at 18°C for 11 days (average cell density of 3.5·10^6/ml), then diluted 1:2x in fresh YPD medium and incubated for another 1.5 h before transfer with the pin tool (approx. 700 cells per spot) onto AE agar with or without fungicide. Plates were incubated at 20°C in the dark for up to 18 days. Smaller scale spotting assays (Figs 4 and 8) were performed using 5 days V8-agar plates inoculums adjusted to 2.10^6 spores.mL^-1 in water and diluted in steps of 3. 2μL of spore suspension was spotted on the plates, and the plates were incubated shielded from light at 21°C for 6 days.

[2] = target: WT-SQR (SDHC), IPO323 mitochondria (Zymoseptoria tritici, UniProt F9X9V6+F9XH52+O42772); test: Succinate-quinone (SQR) SDHI sensitivity assay on purified mitochondria, IPO323; assay type: biochemical
Method in brief: (§1)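 Mitochondria purified from each strain were used for succinate:ubiquinone/DCPIP reductase assays, with suspensions adjusted to similar initial velocity (1 OD595nm hour^-1). Inhibitor was tested at 0.047 nM–50 μM in 4x steps (11 concentrations plus DMSO). IC50 came from non-linear fits of absorbance slopes (OD/min) against log concentration.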

[3] = test system: Zymoseptoria tritici field and genetically modified strains; test: Liquid culture assay for fungicide sensitivity determination; assay type: cell-based; conditions: Zymoseptoria tritici
Method in brief: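 EC50s from liquid culture growth tests with field isolates and modified strains. Population monitoring used final concentrations 100 to 0.0001 mg.L^-1 in 10x steps (7 levels plus DMSO control); refined panel profiling used 0.5 mM to 0.47 nM in 4x steps (11 levels plus DMSO).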

[4] = test system: SQR (SDHC / altC) of IPO323 pTet::SDHC3 transformant, induced; test: Succinate-quinone (SQR) SDHI sensitivity assay on purified mitochondria, IPO323 pTet::SDHC3 induced; assay type: biochemical, Zymoseptoria tritici; conditions: IPO323 pTet::SDHC3 transformant grown in the absence of doxycycline; mean of three ± SD
Method in brief: (§2)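 Succinate:ubiquinone/DCPIP reductase inhibition measured on purified mitochondria from Zymoseptoria tritici strains carrying either a single C-subunit gene (ZtSDHC1, ZtSDHC1_A84I or ZtSDHC3) or both ZtSDHC1 and ZtSDHC3; pTet::SDHC3 transformant tested under repressed and induced conditions.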

[5] = target: SQR of 06STD024 (SDHC / altC) mitochondria (Zymoseptoria tritici, UniProt A0A1X7RQW2+F9X9V6+F9XH52+O42772); test: Succinate-quinone (SQR) SDHI sensitivity assay on purified mitochondria, 06STD024; assay type: biochemical
Method in brief: as §2

[6] = target: altC-SQR (altC) of D024 SDHC1 KO mitochondria (Zymoseptoria tritici, UniProt A0A1X7RQW2+F9X9V6+O42772); test: Succinate-quinone (SQR) SDHI sensitivity assay on purified mitochondria, 06STD024 SDHC1 KO; assay type: biochemical; conditions: for RF (resistance factor), D024 SDHC1 KO (altC): IC50 ratio compared to IPO323 values
Method in brief: as §2

[7] = target: SQR (SDHC) of D024 SDHC3 KO mitochondria (Zymoseptoria tritici, UniProt F9X9V6+F9XH52+O42772); test: Succinate-quinone (SQR) SDHI sensitivity assay on purified mitochondria, 06STD024 SDHC3 KO; assay type: biochemical
Method in brief: as §1

[8] = IC50 ratio compared to IPO323 values

Chain of altC-SQR (altC) of D024 SDHC1 KO mitochondria (A0A1X7RQW2 36-181): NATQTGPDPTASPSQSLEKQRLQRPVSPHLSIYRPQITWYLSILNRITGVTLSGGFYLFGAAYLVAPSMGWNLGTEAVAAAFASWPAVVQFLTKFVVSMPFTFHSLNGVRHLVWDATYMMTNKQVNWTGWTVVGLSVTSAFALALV
Chain of altC-SQR (altC) of D024 SDHC1 KO mitochondria (O42772 20-297): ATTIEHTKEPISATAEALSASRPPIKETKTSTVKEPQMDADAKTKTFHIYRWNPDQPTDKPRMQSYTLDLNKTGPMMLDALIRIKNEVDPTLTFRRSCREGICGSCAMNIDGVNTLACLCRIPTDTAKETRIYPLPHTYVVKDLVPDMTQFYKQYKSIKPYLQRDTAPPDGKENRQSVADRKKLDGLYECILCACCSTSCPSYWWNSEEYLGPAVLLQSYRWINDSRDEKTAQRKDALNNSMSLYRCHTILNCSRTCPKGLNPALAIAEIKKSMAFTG
Chain of altC-SQR (altC) of D024 SDHC1 KO mitochondria (F9X9V6 1-193): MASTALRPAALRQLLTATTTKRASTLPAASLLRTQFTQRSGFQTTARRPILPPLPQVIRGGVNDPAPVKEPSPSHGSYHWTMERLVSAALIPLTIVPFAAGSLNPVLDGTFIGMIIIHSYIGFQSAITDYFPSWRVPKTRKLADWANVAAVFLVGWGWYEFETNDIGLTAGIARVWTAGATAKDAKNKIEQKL
Chain of altC-SQR (altC) of D024 SDHC1 KO mitochondria (F9WWR1 41-643 partner): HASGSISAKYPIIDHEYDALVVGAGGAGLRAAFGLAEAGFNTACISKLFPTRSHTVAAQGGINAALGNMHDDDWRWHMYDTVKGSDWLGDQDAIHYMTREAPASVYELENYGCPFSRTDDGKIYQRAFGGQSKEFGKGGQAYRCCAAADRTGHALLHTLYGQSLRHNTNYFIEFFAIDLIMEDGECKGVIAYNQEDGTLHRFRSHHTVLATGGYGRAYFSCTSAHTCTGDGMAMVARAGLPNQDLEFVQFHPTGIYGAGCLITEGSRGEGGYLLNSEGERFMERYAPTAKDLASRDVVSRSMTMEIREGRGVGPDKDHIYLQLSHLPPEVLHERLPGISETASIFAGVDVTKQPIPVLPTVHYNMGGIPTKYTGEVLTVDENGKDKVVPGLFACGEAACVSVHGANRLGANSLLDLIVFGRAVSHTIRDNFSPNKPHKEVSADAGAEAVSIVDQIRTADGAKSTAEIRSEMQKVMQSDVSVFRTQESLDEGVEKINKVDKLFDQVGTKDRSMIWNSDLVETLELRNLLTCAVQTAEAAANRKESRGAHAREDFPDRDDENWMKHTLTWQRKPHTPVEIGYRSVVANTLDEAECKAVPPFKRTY
Chain of SQR (SDHC) of D024 SDHC3 KO mitochondria (F9XH52 44-187): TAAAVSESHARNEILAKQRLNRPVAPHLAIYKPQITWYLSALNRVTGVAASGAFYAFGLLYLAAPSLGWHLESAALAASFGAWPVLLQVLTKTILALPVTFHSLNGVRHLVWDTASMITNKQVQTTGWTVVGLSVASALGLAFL
Chain of SQR (SDHC) of D024 SDHC3 KO mitochondria (O42772 19-297): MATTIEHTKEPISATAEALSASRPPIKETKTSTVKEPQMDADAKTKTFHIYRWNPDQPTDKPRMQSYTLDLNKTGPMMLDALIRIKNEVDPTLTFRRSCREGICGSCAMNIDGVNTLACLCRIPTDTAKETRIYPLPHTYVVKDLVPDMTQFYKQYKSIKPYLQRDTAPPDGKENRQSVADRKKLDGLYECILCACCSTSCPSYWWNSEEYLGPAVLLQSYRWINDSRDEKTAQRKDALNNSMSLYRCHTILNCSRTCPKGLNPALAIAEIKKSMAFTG
Chain of SQR (SDHC) of D024 SDHC3 KO mitochondria (F9X9V6 1-193): as the sequence (F9X9V6 1-193) above
Chain of SQR (SDHC) of D024 SDHC3 KO mitochondria (F9WWR1 29-643 partner): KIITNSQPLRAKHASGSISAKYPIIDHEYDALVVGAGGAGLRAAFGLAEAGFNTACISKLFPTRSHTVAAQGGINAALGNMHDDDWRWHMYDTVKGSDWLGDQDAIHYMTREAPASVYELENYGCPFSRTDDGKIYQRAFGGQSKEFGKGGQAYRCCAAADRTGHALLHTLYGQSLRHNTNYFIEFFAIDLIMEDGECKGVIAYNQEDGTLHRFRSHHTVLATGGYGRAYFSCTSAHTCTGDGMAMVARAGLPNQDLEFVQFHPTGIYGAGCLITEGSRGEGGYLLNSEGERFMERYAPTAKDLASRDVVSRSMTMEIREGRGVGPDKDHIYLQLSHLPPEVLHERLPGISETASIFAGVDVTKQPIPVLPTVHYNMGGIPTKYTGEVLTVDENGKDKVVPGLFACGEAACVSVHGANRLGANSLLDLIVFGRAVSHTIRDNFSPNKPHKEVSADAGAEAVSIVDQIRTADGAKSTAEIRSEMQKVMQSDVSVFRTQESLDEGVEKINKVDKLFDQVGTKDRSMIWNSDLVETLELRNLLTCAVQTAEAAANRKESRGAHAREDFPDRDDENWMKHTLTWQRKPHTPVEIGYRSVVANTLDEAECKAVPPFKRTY
Chain of SQR of 06STD024 (SDHC / altC) mitochondria (A0A1X7RQW2 36-181): as the sequence (A0A1X7RQW2 36-181) above
Chain of SQR of 06STD024 (SDHC / altC) mitochondria (O42772 19-297): as the sequence (O42772 19-297) above
Chain of SQR of 06STD024 (SDHC / altC) mitochondria (F9X9V6 1-193): as the sequence (F9X9V6 1-193) above
Chain of SQR of 06STD024 (SDHC / altC) mitochondria (F9XH52 44-187): as the sequence (F9XH52 44-187) above
Chain of SQR of 06STD024 (SDHC / altC) mitochondria (F9WWR1 29-643 partner): as the sequence (F9WWR1 29-643 partner) above

## O=C(NCCc1ncc(C(F)(F)F)cc1Cl)c1ccccc1C(F)(F)F [Fluopyram]
[1]; strain 06STD024
  Growth phenotype on SDHI-amended plate: Very strong
[1]; strain 07STGB009
  Growth phenotype on SDHI-amended plate: Very strong
[1]; strain 09STD041
  Growth phenotype on SDHI-amended plate: Weak
[1]; strain 09STD053
  Growth phenotype on SDHI-amended plate: Weak
[1]; strain 09STF011
  Growth phenotype on SDHI-amended plate: Moderate
[1]; strain 09STF037
  Growth phenotype on SDHI-amended plate: Very weak
[1]; strain 09STF112
  Growth phenotype on SDHI-amended plate: Strong
[1]; strain 09STIR20.3
  Growth phenotype on SDHI-amended plate: Very weak
[1]; strain IPO323
  Growth phenotype on SDHI-amended plate: No
[1]; strain IPO94269
  Growth phenotype on SDHI-amended plate: No
[2]
  IC50: 12.5 ± 2 nM
[3]; read-out: EC50 (nM) Mean, strain 06STD024, liquid culture sensitivity
  EC50: 9360 nM
[3]; read-out: EC50 (nM) Mean, strain 07STGB009, liquid culture sensitivity
  EC50: 10900 nM
[3]; read-out: EC50 (nM) Mean, strain 09STD041, liquid culture sensitivity
  EC50: 1370 nM
[3]; read-out: EC50 (nM) Mean, strain 09STD053, liquid culture sensitivity
  EC50: 558 nM
[3]; read-out: EC50 (nM) Mean, strain 09STF011, liquid culture sensitivity
  EC50: 3570 nM
[3]; read-out: EC50 (nM) Mean, strain 09STF037, liquid culture sensitivity
  EC50: 461 nM
[3]; read-out: EC50 (nM) Mean, strain 09STF112, liquid culture sensitivity
  EC50: 2890 nM
[3]; read-out: EC50 (nM) Mean, strain 09STIR20.3, liquid culture sensitivity
  EC50: 419 nM
[3]; read-out: EC50 (nM) Mean, strain Flu21 (SDHC1_A84I), liquid culture sensitivity
  EC50: 4580 nM
[3]; read-out: EC50 (nM) Mean, strain IPO323, liquid culture sensitivity
  EC50: 222 nM
[3]; read-out: EC50 (nM) Mean, strain IPO94269, liquid culture sensitivity
  EC50: 147 nM
[3]; read-out: EC50 (nM) Mean, strain KO_SDHC1_T1, liquid culture sensitivity
  EC50: 25600 nM
[3]; read-out: EC50 (nM) Mean, strain KO_SDHC1_T3, liquid culture sensitivity
  EC50: 21200 nM
[3]; read-out: EC50 (nM) Mean, strain KO_SDHC3_T4, liquid culture sensitivity
  EC50: 350 nM
[3]; read-out: EC50 (nM) Mean, strain KO_SDHC3_T13, liquid culture sensitivity
  EC50: 351 nM
[3]; read-out: EC50 (nM) Mean, strain pTet::SDHC3_I78A_T1, liquid culture sensitivity
  EC50: 354 nM
[3]; read-out: EC50 (nM) Mean, strain pTet::SDHC3_I78A_T5, liquid culture sensitivity
  EC50: 818 nM
[3]; read-out: EC50 (nM) Mean, strain pTet::SDHC3_I78A_T15, liquid culture sensitivity
  EC50: 552 nM
[3]; read-out: EC50 (nM) Mean, strain pTet::SDHC3_I78A_T35, liquid culture sensitivity
  EC50: 143 nM
[3]; read-out: EC50 (nM) Mean, strain pTet::SDHC3_T1, liquid culture sensitivity
  EC50: 16000 nM
[3]; read-out: EC50 (nM) Mean, strain pTet::SDHC3_T2, liquid culture sensitivity
  EC50: 14300 nM
[3]; read-out: EC50 (nM) Mean, strain pTet::SDHC3_T3, liquid culture sensitivity
  EC50: 6750 nM
[3]; read-out: EC50 (nM) Mean, strain pTet::SDHC3_T7, liquid culture sensitivity
  EC50: 24500 nM
[3]; read-out: Fluopyram EC50 in liquid culture, panel of ZtSDHC3 containing isolates, field isolates collected in 2009 carrying ZtSDHC3, from sensitive to resistant
  EC50: 0.3 to 3.2 µg/mL
[4]
  IC50: 548 ± 68.8 nM
[5]; [8]
  RF (resistance factor), 06STD024 (SDHC / altC): 111.3
[5]; mitochondria of field isolate 06STD024, mean of three ± SD
  IC50: 1390 ± 522 nM
[6]
  RF (resistance factor), D024 SDHC1 KO (altC): 93.4
[6]; listed as fluopyram
  RF (resistance factor), D024 SDHC1 KO (altC): ~100
[6]; mitochondria of 06STD024 ZtSDHC1 deletion mutant (pure altC-SQR), mean of three ± SD
  IC50: 1160 ± 201 nM
[7]; [8]
  RF (resistance factor), D024 SDHC3 KO (SDHC): 0.8
[7]; mitochondria of 06STD024 ZtSDHC3 deletion mutant, mean of three ± SD
  IC50: 10.1 ± 2 nM
